Results from US12384800B2, “Antitumoral compounds” (priority 2017, dated 2025).
Read-outs that look alike come from different tables or passages of the source.

Columns and labels:
[1] = MTD (Maximum Tolerated Dose) determination, single iv administration; assay type: in vivo; settings: mice, iv/SD (single dose), monitored up to 14 days; for MTD at 14 days: female, mouse, in vivo
Source text: (§1) Female CD-1 or Athymic Nude-Fox1 nu/nu mice (Envigo) were utilized for all experiments. […] Animals were acclimated for five days prior to being individually tattoo-identified. Animal protocols were reviewed and approved according to the regional Institutional Animal Care and Use Committees.
(§2) Mice were randomly allocated into experimental groups and intravenously administered, once for the MTD (Maximum Tolerated Dose) determination or one administration a week during three consecutive weeks, for the MTMD (Maximum Tolerated Multiple Dose) determination study. The animals were administered with white formulation or with compound dissolved in the experimental formulation at different concentrations. The volume administered was always […]. Once administered, animals were monitored for clinical signs of systemic toxicity, changes in body weight and mortality up to 14 days after the administration.

[2] = MTMD (Maximum Tolerated Multiple Dose) determination, iv weekly x 3; assay type: in vivo; settings: mice; iv/Q7d × 3
Source text: as §1, §2

HT1080 tumors = test: Human fibrosarcoma xenograft, total diameter (tumor + leg)
[3] = test system: A549 cells (lung carcinoma, NSCLC); test: cells; settings: for CC50: read-out: LC50; for IC (total growth inhibition): read-out: TGI
Method in brief: (§3)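 Cells seeded at 5000/well, attached 18 h, then exposed 72 h to ten 2/5 serial dilutions (10 to 0.003 μg/mL; 1% DMSO final) in triplicate; time-zero plate fixed. SRB staining after glutaraldehyde fixation; growth effects by NCI algorithm, four-parameter logistic fit.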

[4] = test system: HT29 cells (colorectal adenocarcinoma); test: cells; settings: for CC50: read-out: LC50; for IC (total growth inhibition): read-out: TGI
Method in brief: as §3

[5] = test system: MDA-MB-231 cells (breast adenocarcinoma); test: cells; settings: for CC50: read-out: LC50; for IC (total growth inhibition): read-out: TGI
Method in brief: as §3

[6] = test system: PSN1 cells (pancreas adenocarcinoma); test: cells; settings: for CC50: read-out: LC50; for IC (total growth inhibition): read-out: TGI
Method in brief: as §3

For `COc1c(C)cc2c(c1O)[C@@H]1[C@@H]3[C@@H]4SC[C@]5(N[C@@H](CO)Cc6c5[nH]c5ccccc65)C(=O)OC[C@@H](c5c6c(c(C)c(OC(C)=O)c54)OCO6)N3[C@@H](O)[C@H](C2)N1C` [Compound 4-R], the MTD [1] was 0.25 mg/kg, the MTMD [2] was 0.30 mg/kg and the “Total diameter (tumor + leg)” value (HT1080 tumors; Day 0, iv Days 0, 7 and 14, PM01183 […], 4-R 0.30 mg/kg) was 8.1 mm. The “Total diameter (tumor + leg)” value (HT1080 tumors; Day 2, iv Days 0, 7 and 14, PM01183 […], 4-R 0.30 mg/kg) was 8.6 mm, the “Total diameter (tumor + leg)” value (HT1080 tumors; Day 7, iv Days 0, 7 and 14, PM01183 […], 4-R 0.30 mg/kg) was 8.7 mm and the “Total diameter (tumor + leg)” value (HT1080 tumors; Day 9, iv Days 0, 7 and 14, PM01183 […], 4-R 0.30 mg/kg) was 9.0 mm. The “Total diameter (tumor + leg)” value (HT1080 tumors; Day 14, iv Days 0, 7 and 14, PM01183 […], 4-R 0.30 mg/kg) was 9.3 mm, the “Total diameter (tumor + leg)” value (HT1080 tumors; Day 18, iv Days 0, 7 and 14, PM01183 […], 4-R 0.30 mg/kg) was 10.3 mm and the “Total diameter (tumor + leg)” value (HT1080 tumors; Day 21, iv Days 0, 7 and 14, PM01183 […], 4-R 0.30 mg/kg) was 11.5 mm. The “Total diameter (tumor + leg)” value (HT1080 tumors; Day 23, iv Days 0, 7 and 14, PM01183 […], 4-R 0.30 mg/kg) was 13.3 mm, the “Total diameter (tumor + leg)” value (HT1080 tumors; Day 25, iv Days 0, 7 and 14, PM01183 […], 4-R 0.30 mg/kg) was 15.8 mm and the “Total diameter (tumor + leg)” value (HT1080 tumors; Day 28, iv Days 0, 7 and 14, 4-R 0.30 mg/kg) was 18.0 mm.
With `COc1c(C)cc2c(c1O)[C@@H]1[C@@H]3[C@@H]4SC[C@]5(N[C@H](CO)Cc6c5[nH]c5ccccc65)C(=O)OC[C@@H](c5c6c(c(C)c(OC(C)=O)c54)OCO6)N3[C@@H](O)[C@H](C2)N1C` [Compound 4-S] the MTD [1] was 1.0 mg/kg, the “Total diameter (tumor + leg)” value (HT1080 tumors; Day 0.0, iv Days 0, 7 and 14, compound C 3.0 mg/kg, 4-S […], 12-S […]) was 7.5 mm and the “Total diameter (tumor + leg)” value (HT1080 tumors; Day 2.0, iv Days 0, 7 and 14, compound C 3.0 mg/kg, 4-S […], 12-S […]) was 7.7 mm. For the same compound, the “Total diameter (tumor + leg)” value (HT1080 tumors; Day 5.0, iv Days 0, 7 and 14, compound C 3.0 mg/kg, 4-S […], 12-S […]) was 8.3 mm, the “Total diameter (tumor + leg)” value (HT1080 tumors; Day 7.0, iv Days 0, 7 and 14, compound C 3.0 mg/kg, 4-S […], 12-S […]) was 8.8 mm and the “Total diameter (tumor + leg)” value (HT1080 tumors; Day 9.0, iv Days 0, 7 and 14, compound C 3.0 mg/kg, 4-S […], 12-S […]) was 8.4 mm. The “Total diameter (tumor + leg)” value (HT1080 tumors; Day 12.0, iv Days 0, 7 and 14, compound C 3.0 mg/kg, 4-S […], 12-S […]) was 8.4 mm, the “Total diameter (tumor + leg)” value (HT1080 tumors; Day 14.0, iv Days 0, 7 and 14, compound C 3.0 mg/kg, 4-S […], 12-S […]) was 9.6 mm and the “Total diameter (tumor + leg)” value (HT1080 tumors; Day 16.0, iv Days 0, 7 and 14, compound C 3.0 mg/kg, 4-S […], 12-S […]) was 10.0 mm. For the same compound, the “Total diameter (tumor + leg)” value (HT1080 tumors; Day 19.0, iv Days 0, 7 and 14, compound C 3.0 mg/kg, 4-S […], 12-S […]) was 10.4 mm, the “Total diameter (tumor + leg)” value (HT1080 tumors; Day 21.0, iv Days 0, 7 and 14, compound C 3.0 mg/kg, 4-S […], 12-S […]) was 12.1 mm and the “Total diameter (tumor + leg)” value (HT1080 tumors; Day 23.0, iv Days 0, 7 and 14, compound C 3.0 mg/kg, 4-S […], 12-S […]) was 12.7 mm.
`COc1ccc2[nH]c3c(c2c1)C[C@@H](CO)N[C@]31CS[C@@H]2c3c(OC(C)=O)c(C)c4c(c3[C@H](COC1=O)N1[C@@H]2[C@H]2c3c(cc(C)c(OC)c3O)C[C@@H]([C@@H]1O)N2C)OCO4` [Compound 19-S] showed a GI50 ([3]; Homo sapiens, A549, 72 h) of 3.07 nM, a CC50 ([3]; Homo sapiens, A549, 72 h) greater than 123 nM and an IC (total growth inhibition) ([3]; Homo sapiens, A549, 72 h) of 0.00331 µM. For the same compound, the GI50 ([4]; Homo sapiens, HT-29, 72 h) was 1.35 nM, the CC50 ([4]; Homo sapiens, HT-29, 72 h) was greater than 123 nM and the IC (total growth inhibition) ([4]; Homo sapiens, HT-29, 72 h) was 0.0016 µM. The GI50 ([5]; Homo sapiens, MDA-MB-231, 72 h) was 1.96 nM, the CC50 ([5]; Homo sapiens, MDA-MB-231, 72 h) was 11 nM and the IC (total growth inhibition) ([5]; Homo sapiens, MDA-MB-231, 72 h) was 0.00331 µM. The GI50 ([6]; Homo sapiens, PSN1, 72 h) was 2.95 nM, the CC50 ([6]; Homo sapiens, PSN1, 72 h) was greater than 123 nM and the IC (total growth inhibition) ([6]; Homo sapiens, PSN1, 72 h) was 0.00319 µM. It also gave an MTD at 14 days [1] of 0.5 mg/kg and an MTMD [2] of 0.75 mg/kg.
With `COc1c(C)cc2c(c1O)[C@@H]1[C@@H]3[C@@H]4SC[C@]5(N[C@@H](C)Cc6c5[nH]c5ccccc65)C(=O)OC[C@@H](c5c6c(c(C)c(OC(C)=O)c54)OCO6)N3[C@@H](O)[C@H](C2)N1C` [Compound D] the GI50 ([3]; A549, 72 hours treatment, SRB) was 12.5 nM, the TGI ([3]; A549, total cell growth inhibition, 72 hours, SRB) was 2.86E−08 Molar and the CC50 ([3]; A549, 50% net cell killing, 72 hours, SRB) was greater than 130 nM. The GI50 ([4]; HT29, 72 hours treatment, SRB) was 10.3 nM, the TGI ([4]; HT29, total cell growth inhibition, 72 hours, SRB) was 2.34E−08 Molar and the CC50 ([4]; HT29, 50% net cell killing, 72 hours, SRB) was greater than 130 nM. The GI50 ([5]; MDA-MB-231, 72 hours treatment, SRB) was 9.88 nM, the TGI ([5]; MDA-MB-231, total cell growth inhibition, 72 hours, SRB) was 1.95E−08 Molar and the CC50 ([5]; MDA-MB-231, 50% net cell killing, 72 hours, SRB) was 53.3 nM. The GI50 ([6]; PSN1, 72 hours treatment, SRB) was 20.8 nM, the TGI ([6]; PSN1, total cell growth inhibition, 72 hours, SRB) was 2.21E−08 Molar and the CC50 ([6]; PSN1, 50% net cell killing, 72 hours, SRB) was 24.7 nM. For the same compound, the MTMD [2] was 0.5 mg/kg, the “Total diameter (tumor + leg)” value (HT1080 tumors; Day 0) was 7.5 mm and the “Total diameter (tumor + leg)” value (HT1080 tumors; Day 0, iv Days 0, 7 and 14, PM01183 […], Compound D 0.5 mg/kg) was 7.7 mm. For the same compound, the “Total diameter (tumor + leg)” value (HT1080 tumors; Day 2) was 8.2 mm, the “Total diameter (tumor + leg)” value (HT1080 tumors; Day 2, iv Days 0, 7 and 14, PM01183 […], Compound D 0.5 mg/kg) was 9.5 mm and the “Total diameter (tumor + leg)” value (HT1080 tumors; Day 5) was 7.5 mm. The “Total diameter (tumor + leg)” value (HT1080 tumors; Day 5, iv Days 0, 7 and 14, PM01183 […], Compound D 0.5 mg/kg) was 8.8 mm, the “Total diameter (tumor + leg)” value (HT1080 tumors; Day 7) was 7.4 mm and the “Total diameter (tumor + leg)” value (HT1080 tumors; Day 7, iv Days 0, 7 and 14, PM01183 […], Compound D 0.5 mg/kg) was 8.7 mm. For the same compound, the “Total diameter (tumor + leg)” value (HT1080 tumors; Day 9) was 8.1 mm, the “Total diameter (tumor + leg)” value (HT1080 tumors; Day 9, iv Days 0, 7 and 14, PM01183 […], Compound D 0.5 mg/kg) was 9.4 mm and the “Total diameter (tumor + leg)” value (HT1080 tumors; Day 12) was 7.9 mm. The “Total diameter (tumor + leg)” value (HT1080 tumors; Day 12, iv Days 0, 7 and 14, PM01183 […], Compound D 0.5 mg/kg) was 9.4 mm, the “Total diameter (tumor + leg)” value (HT1080 tumors; Day 14) was 7.7 mm and the “Total diameter (tumor + leg)” value (HT1080 tumors; Day 14, iv Days 0, 7 and 14, PM01183 […], Compound D 0.5 mg/kg) was 10.1 mm. For the same compound, the “Total diameter (tumor + leg)” value (HT1080 tumors; Day 16) was 8.8 mm, the “Total diameter (tumor + leg)” value (HT1080 tumors; Day 16, iv Days 0, 7 and 14, PM01183 […], Compound D 0.5 mg/kg) was 10.9 mm and the “Total diameter (tumor + leg)” value (HT1080 tumors; Day 19) was 10.2 mm. The “Total diameter (tumor + leg)” value (HT1080 tumors; Day 19, iv Days 0, 7 and 14, PM01183 […], Compound D 0.5 mg/kg) was 11.2 mm, the “Total diameter (tumor + leg)” value (HT1080 tumors; Day 21) was 11.2 mm and the “Total diameter (tumor + leg)” value (HT1080 tumors; Day 21, iv Days 0, 7 and 14, PM01183 […], Compound D 0.5 mg/kg) was 12.1 mm. The “Total diameter (tumor + leg)” value (HT1080 tumors; Day 23) was 12.2 mm, the “Total diameter (tumor + leg)” value (HT1080 tumors; Day 23, iv Days 0, 7 and 14, Compound D 0.5 mg/kg) was 13.0 mm and the “Total diameter (tumor + leg)” value (HT1080 tumors; Day 26, iv Days 0, 7 and 14, Compound D 0.5 mg/kg) was 15.0 mm. The “Total diameter (tumor + leg)” value (HT1080 tumors; Day 27) was 13.2 mm, the “Total diameter (tumor + leg)” value (HT1080 tumors; Day 28, iv Days 0, 7 and 14, Compound D 0.5 mg/kg) was 18.0 mm and the “Total diameter (tumor + leg)” value (HT1080 tumors; Day 30) was 14.6 mm. The “Total diameter (tumor + leg)” value (HT1080 tumors; Day 33) was 16.3 mm and the “Total diameter (tumor + leg)” value (HT1080 tumors; Day 35) was 18.0 mm.
`COc1ccc2[nH]c3c(c2c1)C[C@H](CO)N[C@]31CS[C@@H]2c3c(OC(C)=O)c(C)c4c(c3[C@H](COC1=O)N1[C@@H]2[C@H]2c3c(cc(C)c(OC)c3O)C[C@@H]([C@@H]1O)N2C)OCO4` [Compound 19-R] showed a CC50 ([3]; Homo sapiens, A549, 72 h) greater than 123 nM, an IC (total growth inhibition) ([3]; Homo sapiens, A549, 72 h) of 0.00356 µM and a CC50 ([4]; Homo sapiens, HT-29, 72 h) greater than 123 nM. The IC (total growth inhibition) ([4]; Homo sapiens, HT-29, 72 h) was 0.00172 µM, the CC50 ([5]; Homo sapiens, MDA-MB-231, 72 h) was greater than 123 nM and the IC (total growth inhibition) ([5]; Homo sapiens, MDA-MB-231, 72 h) was 0.00135 µM. The IC (total growth inhibition) ([6]; Homo sapiens, PSN1, 72 h) was 0.00135 µM, the MTD at 14 days [1] was 0.15 mg/kg and the MTMD [2] was 0.15 mg/kg.
